Tests used:
BTK = molecular target: T1, BTK (Homo sapiens, UniProt Q06187); assay: In Vitro BTK Kinase Assay: Btk-PolyGAT-LS Assay; format: biochemical; settings: active BTK enzyme 0.25 nM, fluorescein-labeled polyGAT peptide 100 nM, 30 minutes incubation, TRF readout; read-out: In Vitro BTK Kinase Assay IC50 Score
T1 construct: purchased Upstate 14-552
Method: The purpose of the BTK in vitro assay is to determine compound potency against BTK through the measurement of IC50. Compound inhibition is measured after monitoring the amount of phosphorylation of a fluorescein-labeled polyGAT peptide (Invitrogen PV3611) in the presence of active BTK enzyme (Upstate 14-552), ATP, and inhibitor. The BTK kinase reaction was done in a black 96 well plate (costar 3694). For a typical assay, a 24 μL aliquot of a ATP/peptide master mix (final concentration; ATP […], polyGAT 100 nM) in kinase buffer (10 mM Tris-HCl pH 7.5, 10 mM MgCl2, 200 μM […], 5 mM DTT, 0.01% Triton X-100, and 0.2 mg/ml casein) is added to each well. Next, I uL of a 4-fold, 40× compound titration in 100% DMSO solvent is added, followed by adding […] of BTK enzyme mix in 1× kinase buffer (with a final concentration of 0.25 nM). The assay is incubated for 30 minutes before being stopped with […] of a 50 mM EDTA solution. Aliquots (5 uL) of the kinase reaction are transferred to a low volume white 384 well plate (Corning 3674), and […] of a 2× detection buffer (Invitrogen PV3574, with 4 nM Tb-PY20 antibody, Invitrogen PV3552) is added. The plate is covered and incubated for 45 minutes at room temperature. Time resolved fluorescence (TRF) on Molecular Devices M5 (332 nm excitation; 488 nm emission; 518 nm fluorescein emission) is measured. IC50 values are calculated using a four parameter fit with 100% enzyme activity determined from the DMSO control and 0% activity from the EDTA control.
“†” represents an IC50 of greater than 1 μM and equal to or less than 10 μM. “††” represents an IC50 of greater than 10 nM and equal to or less than 1 μM (10 nM<IC50≤1 μM). “†††” represents an IC50 of greater than 1 nM and equal to or less than 10 nM (1 nM<IC50≤10 nM). “††††” represents an IC50 of less than 1 nM.

[1] = test system: CD69 expression on CD19+ B cells in human whole blood; assay: In Vitro Whole Blood CD69 Assay; format: cell-based; settings: B-cell; human heparinized whole blood, anti-human IgD stimulation, overnight (18 to 22 hours), percentage of CD19+ B cells expressing CD69, flow cytometry; read-out: In Vitro HWB CD69 Assay IC50 Score
Method: Human heparinized venous blood from health donors was aliquoted into 96-well plate and “spiked” with serial dilutions of formula I compounds in DMSO or with DMSO without drug. The final concentration of DMSO in all wells was 0.1%. The plate was incubated at 37° C. for 30 min. Drug-containing samples were stimulated with […] mouse anti-human IgD-dextran (1A62) or 20 μg/mL polyclonal rabbit F(ab′)2 anti-human IgD.
Phosphate-buffered saline (PBS) was added to the negative control unstimulated sample and the plates were incubated overnight (18 to 22 hours) at 37° C. Cells were stained with fluorochrome-conjugated anti-CD19 and anti-CD69 antibodies. Lyse/fix solution was used to remove red blood cells by hypotonic lysis and to fix the remaining cells, which were then analyzed by flow cytometry. CD19+B cells were gated and analyzed for CD69 expression.
The percentage of B cells expressing CD69 was plotted versus the log 10 of the concentration of the drug and the best-fit curves (variable Hill slope) were generated to obtain the IC50 value.
“†” represents an IC50 of greater than 10 μM. “††” represents an IC50 of greater than 1 μM and equal to or less than 10 μM (1 μM<IC50≤10 μM). “†††” represents an IC50 of less than 1 μM.

T1 sequence (Q06187 whole entry): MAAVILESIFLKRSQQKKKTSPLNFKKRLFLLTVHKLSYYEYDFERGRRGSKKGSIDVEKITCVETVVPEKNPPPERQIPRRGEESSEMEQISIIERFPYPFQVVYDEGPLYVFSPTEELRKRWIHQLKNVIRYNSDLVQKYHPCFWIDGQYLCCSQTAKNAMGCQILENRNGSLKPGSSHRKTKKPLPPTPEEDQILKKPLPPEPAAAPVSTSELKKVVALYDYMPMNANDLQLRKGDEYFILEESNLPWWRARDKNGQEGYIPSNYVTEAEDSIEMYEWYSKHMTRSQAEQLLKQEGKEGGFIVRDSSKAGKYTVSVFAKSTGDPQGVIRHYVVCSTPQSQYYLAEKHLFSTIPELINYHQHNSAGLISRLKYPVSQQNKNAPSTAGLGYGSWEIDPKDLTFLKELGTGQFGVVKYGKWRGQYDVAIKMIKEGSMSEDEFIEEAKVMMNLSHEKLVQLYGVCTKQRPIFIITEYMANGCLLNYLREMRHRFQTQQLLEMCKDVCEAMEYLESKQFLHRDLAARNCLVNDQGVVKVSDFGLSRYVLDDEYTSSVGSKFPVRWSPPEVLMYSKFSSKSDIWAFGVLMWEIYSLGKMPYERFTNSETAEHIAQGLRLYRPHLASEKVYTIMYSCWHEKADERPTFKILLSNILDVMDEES

Structure (SMILES) | IC50 (BTK) [nM] | IC50 [1] [µM]
C=CC(=O)N1C2CCC1CC(c1nc(-c3cnn(C)c3)cn3nccc13)C2 (stereo not drawn) [Example 11, 1-[3-[6-(1-methylpyrazol-4-yl)pyrazolo[1,5-a]pyrazin-4-yl]-8-azabicyclo [3.2.1]octan-8-yl]prop-2-en-1-one] | 1 to 10 | 1 to 10
C=CC(=O)N1C2CCCC1CC(c1nc(-c3cnn(C)c3)cn3nccc13)C2 (stereo not drawn) [Example 13, 1-[3-[6-(1-methylpyrazol-4-yl)pyrazolo[1,5-a]pyrazin-4-yl]-9-azabicyclo[3.3.1]nonan-9-yl]prop-2-en-1-one] | 1 to 10 | 1 to 10
C=CC(=O)N1CC2CCC1CC2c1nc(-c2cnn(C)c2)cn2nccc12 (stereo not drawn) [Example 14, 1-[5-[6-(1-methylpyrazol-4-yl)pyrazolo[1,5-a]pyrazin-4-yl]-2-azabicyclo[2.2.2]octan-2-yl]prop-2-en-1-one] | 1 to 10 | 1 to 10
C=CC(=O)N1CCC(c2nc(-c3cnn(C)c3)cn3nccc23)C(C)C1 (stereo not drawn) [Example 15, 1-[3-methyl-4-[6-(1-methylpyrazol-4-yl)pyrazolo[1,5-a]pyrazin-4-yl]-1-piperidyl]prop-2-en-1-one] | 10 to 1000 | 1 to 10
C=CC(=O)Nc1cccc(-c2nc(-c3cnn(C)c3)cn3nccc23)c1 [Example 28, N-(3-(6-(1-methyl-1H-pyrazol-4-yl)pyrazolo[1,5-a]pyrazin-4-yl)phenyl) acrylamide] | 10 to 1000 | 1 to 10
C=CC(=O)N(C)c1cccc(-c2nc(-c3cnn(C)c3)cn3nccc23)c1 [Example 29, N-methyl-N-(3-(6-(1-methyl-1H-pyrazol-4-yl)pyrazolo[1,5-a]pyrazin-4-yl)phenyl)acrylamide] | 1 to 10 | 1 to 10
